Experiment: xn = mol fraction of the nth substance listed
Settings: Fluid (supercritical or subcritical phases), Spherical resonator

N#N [nitrogen] + C
Settings | speed of sound [m/s]
250 K, 30044 kPa, x1 = 0.1 | 707.81
250 K, 30196 kPa, x1 = 0.2 | 665.27
275 K, 105.1 kPa, x1 = 0.2 | 405.31
275 K, 249.6 kPa, x1 = 0.2 | 404.93
275 K, 498.5 kPa, x1 = 0.1 | 416.53
275 K, 498.5 kPa, x1 = 0.2 | 404.25
275 K, 998 kPa, x1 = 0.2 | 402.93
275 K, 998.1 kPa, x1 = 0.1 | 414.81
275 K, 1999 kPa, x1 = 0.1 | 411.66
275 K, 2001 kPa, x1 = 0.2 | 400.6
275 K, 3010 kPa, x1 = 0.2 | 398.72
275 K, 3012 kPa, x1 = 0.1 | 408.95
275 K, 4014 kPa, x1 = 0.2 | 397.39
275 K, 4024 kPa, x1 = 0.1 | 406.81
275 K, 5030 kPa, x1 = 0.2 | 396.69
275 K, 6045 kPa, x1 = 0.2 | 396.72
275 K, 6053 kPa, x1 = 0.1 | 404.7
275 K, 7052 kPa, x1 = 0.2 | 397.57
275 K, 8005 kPa, x1 = 0.1 | 406.18
275 K, 8072 kPa, x1 = 0.2 | 399.34
275 K, 9089 kPa, x1 = 0.2 | 402.1
275 K, 9957 kPa, x1 = 0.1 | 411.99
275 K, 10115 kPa, x1 = 0.2 | 405.96
275 K, 11147 kPa, x1 = 0.2 | 410.97
275 K, 12035 kPa, x1 = 0.1 | 423.61
275 K, 12036 kPa, x1 = 0.1 | 423.62
275 K, 12160 kPa, x1 = 0.2 | 416.99
275 K, 13171 kPa, x1 = 0.2 | 424.08
275 K, 14013 kPa, x1 = 0.2 | 430.77
275 K, 14111 kPa, x1 = 0.1 | 440.93
275 K, 15003 kPa, x1 = 0.2 | 439.49
275 K, 15988 kPa, x1 = 0.1 | 460.87
275 K, 15990 kPa, x1 = 0.2 | 449
275 K, 17009 kPa, x1 = 0.2 | 459.59
275 K, 17997 kPa, x1 = 0.2 | 470.47
275 K, 18033 kPa, x1 = 0.1 | 486.14
275 K, 19084 kPa, x1 = 0.2 | 483.04
275 K, 19680 kPa, x1 = 0.2 | 490.13
275 K, 20228 kPa, x1 = 0.1 | 515.84
275 K, 24821 kPa, x1 = 0.1 | 581.11
275 K, 29257 kPa, x1 = 0.1 | 642.82
275 K, 29972 kPa, x1 = 0.2 | 619.3
300 K, 199.5 kPa, x1 = 0.1 | 434.92
300 K, 248.5 kPa, x1 = 0.2 | 421.88
300 K, 480.1 kPa, x1 = 0.5422 | 386.4
300 K, 498 kPa, x1 = 0.1 | 434.24
300 K, 498.6 kPa, x1 = 0.2 | 421.47
300 K, 707.5 kPa, x1 = 0.5422 | 386.45
300 K, 996.8 kPa, x1 = 0.1 | 433.15
300 K, 1191 kPa, x1 = 0.5422 | 386.59
300 K, 1998 kPa, x1 = 0.1 | 431.25
300 K, 1999 kPa, x1 = 0.2 | 419.47
300 K, 2344 kPa, x1 = 0.5422 | 387.23
300 K, 3003 kPa, x1 = 0.1 | 429.75
300 K, 4015 kPa, x1 = 0.2 | 418.25
300 K, 4016 kPa, x1 = 0.1 | 428.73
300 K, 4632 kPa, x1 = 0.5422 | 389.87
300 K, 5019 kPa, x1 = 0.1 | 428.26
300 K, 6030 kPa, x1 = 0.1 | 428.38
300 K, 6037 kPa, x1 = 0.2 | 419.02
300 K, 6838 kPa, x1 = 0.5422 | 394.27
300 K, 7046 kPa, x1 = 0.1 | 429.17
300 K, 8068 kPa, x1 = 0.2 | 422.18
300 K, 8086 kPa, x1 = 0.1 | 430.75
300 K, 8994 kPa, x1 = 0.5422 | 400.43
300 K, 10104 kPa, x1 = 0.2 | 428.03
300 K, 10134 kPa, x1 = 0.1 | 436.25
300 K, 11262 kPa, x1 = 0.5422 | 408.61
300 K, 11983 kPa, x1 = 0.2 | 435.96
300 K, 12193 kPa, x1 = 0.1 | 445.26
300 K, 14023 kPa, x1 = 0.2 | 447.31
300 K, 14237 kPa, x1 = 0.1 | 457.66
300 K, 16022 kPa, x1 = 0.2 | 461.03
300 K, 16322 kPa, x1 = 0.1 | 473.66
300 K, 17969 kPa, x1 = 0.2 | 476.54
300 K, 18326 kPa, x1 = 0.1 | 491.78
300 K, 19736 kPa, x1 = 0.2 | 492.16
300 K, 19924 kPa, x1 = 0.1 | 507.75
300 K, 24934 kPa, x1 = 0.1 | 563.32
300 K, 30250 kPa, x1 = 0.1 | 625.49
350 K, 202.3 kPa, x1 = 0.1 | 466.26
350 K, 248.7 kPa, x1 = 0.2 | 452.58
350 K, 498.6 kPa, x1 = 0.2 | 452.54
350 K, 502 kPa, x1 = 0.1 | 466.1
350 K, 552.3 kPa, x1 = 0.5422 | 415.67
350 K, 814.8 kPa, x1 = 0.5422 | 415.97
350 K, 1001 kPa, x1 = 0.1 | 465.83
350 K, 1374 kPa, x1 = 0.5422 | 416.67
350 K, 1999 kPa, x1 = 0.2 | 452.66
350 K, 2001 kPa, x1 = 0.1 | 465.52
350 K, 2717 kPa, x1 = 0.5422 | 418.62
350 K, 3007 kPa, x1 = 0.1 | 465.52
350 K, 4009 kPa, x1 = 0.2 | 453.86
350 K, 4012 kPa, x1 = 0.1 | 465.86
350 K, 5419 kPa, x1 = 0.5422 | 423.85
350 K, 6023 kPa, x1 = 0.1 | 467.64
350 K, 6042 kPa, x1 = 0.2 | 456.41
350 K, 8048 kPa, x1 = 0.1 | 471.02
350 K, 8070 kPa, x1 = 0.5422 | 430.68
350 K, 8140 kPa, x1 = 0.2 | 460.55
350 K, 9931 kPa, x1 = 0.2 | 465.36
350 K, 10069 kPa, x1 = 0.1 | 476.07
350 K, 10144 kPa, x1 = 0.2 | 466.02
350 K, 12122 kPa, x1 = 0.1 | 482.98
350 K, 12140 kPa, x1 = 0.2 | 472.93
350 K, 13507 kPa, x1 = 0.5422 | 449.48
350 K, 14143 kPa, x1 = 0.1 | 491.53
350 K, 14157 kPa, x1 = 0.2 | 481.39
350 K, 16162 kPa, x1 = 0.2 | 491.18
350 K, 16179 kPa, x1 = 0.1 | 501.83
350 K, 17867 kPa, x1 = 0.2 | 500.53
350 K, 18210 kPa, x1 = 0.1 | 513.66
350 K, 19448 kPa, x1 = 0.2 | 509.95
350 K, 19809 kPa, x1 = 0.1 | 523.96
400 K, 199.4 kPa, x1 = 0.1 | 494.39
400 K, 231.4 kPa, x1 = 0.2 | 480.07
400 K, 497.1 kPa, x1 = 0.1 | 494.48
400 K, 501.8 kPa, x1 = 0.2 | 480.26
400 K, 622 kPa, x1 = 0.5422 | 442.06
400 K, 918.4 kPa, x1 = 0.5422 | 442.56
400 K, 995.6 kPa, x1 = 0.1 | 494.7
400 K, 1551 kPa, x1 = 0.5422 | 443.69
400 K, 1990 kPa, x1 = 0.1 | 495.31
400 K, 2005 kPa, x1 = 0.2 | 481.61
400 K, 2989 kPa, x1 = 0.1 | 496.16
400 K, 3075 kPa, x1 = 0.5422 | 446.66
400 K, 3994 kPa, x1 = 0.1 | 497.25
400 K, 4015 kPa, x1 = 0.2 | 484.18
400 K, 6011 kPa, x1 = 0.1 | 500.22
400 K, 6027 kPa, x1 = 0.2 | 487.68
400 K, 6170 kPa, x1 = 0.5422 | 453.88
400 K, 8012 kPa, x1 = 0.1 | 504.2
400 K, 8046 kPa, x1 = 0.2 | 492.14
400 K, 9240 kPa, x1 = 0.5422 | 462.55
400 K, 10023 kPa, x1 = 0.1 | 509.28
400 K, 10077 kPa, x1 = 0.2 | 497.61
400 K, 12004 kPa, x1 = 0.2 | 503.66
400 K, 12054 kPa, x1 = 0.1 | 515.5
400 K, 14084 kPa, x1 = 0.1 | 522.78
400 K, 14562 kPa, x1 = 0.2 | 513.02
400 K, 15633 kPa, x1 = 0.5422 | 484.69
400 K, 16027 kPa, x1 = 0.2 | 519
400 K, 16081 kPa, x1 = 0.1 | 530.96
400 K, 16082 kPa, x1 = 0.1 | 530.96
400 K, 18039 kPa, x1 = 0.2 | 527.93
400 K, 18052 kPa, x1 = 0.1 | 539.93
400 K, 19788 kPa, x1 = 0.1 | 548.54
400 K, 20114 kPa, x1 = 0.2 | 537.94
